Data published in patent EP4722212A1, “NOVEL COMPOUND FOR INHIBITING PROTEIN KINASES AND PHARMACEUTICAL COMPOSITION COMPRISING SAME” (Magicbullettherapeutics Co., Ltd., priority 2023, dated 2024).

System: C4-2B
Test: Cell line inhibition analysis (CCK-8, 72 h)
Format: cell-based
Settings: read-out: Cell growth inhibition GI50 C4-2B
Description: C4-2B and 22Rv1 cells were purchased from ATCC and cultured according to the manufacturer's instructions. The cells were seeded in 96-well plates at 7×10^3cells/100 µl/well and allowed to attach for one day. After removing the culture medium, 90 µl/well of fresh culture medium was added, followed by addition of 10 µl/well of culture medium containing compounds at nine concentrations (0.076-500 µM) serially diluted 3-fold and DMSO control to achieve final concentrations of 0-50 µM, and then cultured for 72 hours in a 37 °C CO2 incubator. Cell proliferation after 72 hours was assessed by adding 10 µl/well of CCK-8 solution, orbital shaking for 30 seconds, then incubating at 37 °C CO2 incubator for 2 hours and measuring absorbance at 450 nm using a microplate reader. The measured absorbance values were corrected by subtracting the absorbance of wells containing only culture medium and CCK-8 solution, and GI50 values were calculated using GraphPad Prism 8 software.
Meanwhile, in a separate 96-well plate, cells were seeded at 7 × 10^3 cells/100 µl/well, allowed to attach for one day, CCK-8 solution was added, and absorbance was measured to establish the 'Growth (%) = 0' value.

Which GI50 does the source give for Cc1ccc(NC(=O)c2ccc(F)c(F)c2)cc1N1Cc2cnc(N)nc2C2(CC2)C1=O [Compound 9, N-(3-(2'-amino-7'-oxo-5'H-spiro[cyclopropane-1,8'-pyrido[4,3-d]pyrimidine]-6'(7'H)-yl)-4-methylphenyl)-3,4-difluorobenzamide] here?
Its GI50 is greater than 10 µM.

How did the GI50 turn out when Cc1ccc(NC(=O)c2ccc(F)c(F)c2)cc1N1Cc2cnc(NC3CC3)nc2C2(CC2)C1=O [Compound 10, N-(3-(2'-(cyclopropylamino)-7'-oxo-5'H-spiro[cyclopropane-1,8'-pyrido[4,3-d]pyrimidine]-6'(7'H)-yl)-4-methylphenyl)-3,4-difluorobenzamide] was run?
Its GI50 is greater than 10 µM.

For Cc1ccc(NC(=O)c2cc(F)cc(F)c2)cc1N1Cc2cnc(NC3CC3)nc2C2(CC2)C1=O [Compound 11, N-(3-(2'-(cyclopropylamino)-7'-oxo-5'H-spiro[cyclopropane-1,8'-pyrido[4,3-d]pyrimidine]-6'(7'H)-yl)-4-methylphenyl)-3,5-difluorobenzamide], which GI50 is on record?
Its GI50 is greater than 10 µM.

Cc1ccc(NC(=O)c2ccc(C)c(C(F)(F)F)c2)cc1N1Cc2cnc(NC3CC3)nc2C2(CC2)C1=O [Compound 12, N-(3-(2'-(cyclopropylamino)-7'-oxo-5'H-spiro[cyclopropane-1,8'-pyrido[4,3-d]pyrimidine]-6'(7'H)-yl)-4-methylphenyl)-4-methyl-3-(trifluoromethyl)benzamide] was tested. Which GI50 did it give?
Its GI50 is 1 to 5 µM.

With Cc1ccc(NC(=O)c2cc(Br)cc(C(F)(F)F)c2)cc1N1Cc2cnc(NC3CC3)nc2C2(CC2)C1=O [Compound 13, 3-bromo-N-(3-(2'-(cyclopropylamino)-7'-oxo-5'H-spiro[cyclopropane-1,8'-pyrido[4,3-d]pyrimidine]-6'(7'H)-yl)-4-methylphenyl)-5-(trifluoromethyl)benzamide] as the compound, how does the GI50 read?
The GI50 was greater than 10 µM.

For Cc1ccc(NC(=O)c2ccc(F)cc2F)cc1N1Cc2cnc(N)nc2C2(CC2)C1=O [Compound 14, N-(3-(2'-amino-7'-oxo-5'H-spiro[cyclopropane-1,8'-pyrido[4,3-d]pyrimidine]-6'(7'H)-yl)-4-methylphenyl)-2,4-difluorobenzamide], which GI50 is on record?
The GI50 was greater than 10 µM.

Which GI50 does the source give for Cc1ccc(NC(=O)c2cc(F)cc(F)c2)cc1N1Cc2cnc(N)nc2C2(CC2)C1=O [Compound 15, N-(3-(2'-amino-7'-oxo-5'H-spiro[cyclopropane-1,8'-pyrido[4,3-d]pyrimidine]-6'(7'H)-yl)-4-methylphenyl)-3,5-difluorobenzamide] here?
The GI50 was 5 to 10 µM.

How did the GI50 turn out when COc1cccc(C(=O)Nc2ccc(C)c(N3Cc4cnc(N)nc4C4(CC4)C3=O)c2)c1 [Compound 16, N-(3-(2'-amino-7'-oxo-5'H-spiro[cyclopropane-1,8'-pyrido[4,3-d]pyrimidine]-6'(7'H)-yl)-4-methylphenyl)-3-methoxybenzamide] was run?
The GI50 was greater than 10 µM.

Which GI50 does the source give for Cc1ccc(NC(=O)c2cc(C(F)(F)F)cc(Cl)c2F)cc1N1Cc2cnc(N)nc2C2(CC2)C1=O [Compound 17, N-(3-(2'-amino-7'-oxo-5'H-spiro[cyclopropane-1,8'-pyrido[4,3-d]pyrimidine]-6'(7'H)-yl)-4-methylphenyl)-3-chloro-2-fluoro-5-(trifluoromethyl)benzamide] here?
Its GI50 is greater than 10 µM.

Cc1ccc(NC(=O)c2cc(C(F)(F)F)ccc2F)cc1N1Cc2cnc(N)nc2C2(CC2)C1=O [Compound 18, N-(3-(2'-amino-7'-oxo-5'H-spiro[cyclopropane-1,8'-pyrido[4,3-d]pyrimidine]-6'(7'H)-yl)-4-methylphenyl)-2-fluoro-5-(trifluoromethyl)benzamide] was tested. Which GI50 did it give?
Its GI50 is greater than 10 µM.

For Cc1ccc(NC(=O)c2cccc(C(F)(F)F)n2)cc1N1Cc2cnc(N)nc2C2(CC2)C1=O [Compound 21, N-(3-(2'-amino-7'-oxo-5'H-spiro[cyclopropane-1,8'-pyrido[4,3-d]pyrimidine]-6'(7'H)-yl)-4-methylphenyl)-6-(trifluoromethyl)picolinamide], which GI50 is on record?
The GI50 was greater than 10 µM.

Which GI50 does the source give for Cc1ccc(NC(=O)c2ccnc(C(F)(F)F)c2)cc1N1Cc2cnc(N)nc2C2(CC2)C1=O [Compound 22, N-(3-(2'-amino-7'-oxo-5'H-spiro[cyclopropane-1,8'-pyrido[4,3-d]pyrimidine]-6'(7'H)-yl)-4-methylphenyl)-2-(trifluoromethyl)isonicotinamide] here?
Its GI50 is greater than 10 µM.

Cc1ccc(NC(=O)c2cc(O)cc(C(F)(F)F)c2)cc1N1Cc2cnc(N)nc2C2(CC2)C1=O [Compound 23, N-(3-(2'-amino-7'-oxo-5'H-spiro[cyclopropane-1,8'-pyrido[4,3-d]pyrimidine]-6'(7'H)-yl)-4-methylphenyl)-3-hydroxy-5-(trifluoromethyl)benzamide] was tested. Which GI50 did it give?
Its GI50 is 5 to 10 µM.

With Cc1ccc(NC(=O)c2cc(F)cc(C(F)(F)F)c2)cc1N1Cc2cnc(NC3CC3)nc2C2(CC2)C1=O [Compound 27, N-(3-(2'-(cyclopropylamino)-7'-oxo-5'H-spiro[cyclopropane-1,8'-pyrido[4,3-d]pyrimidine]-6'(7'H)-yl)-4-methylphenyl)-3-fluoro-5-(trifluoromethyl)benzamide] as the compound, how does the GI50 read?
Its GI50 is 5 to 10 µM.

COCCN(C)c1cc(C(=O)Nc2ccc(C)c(N3Cc4cnc(NC5CC5)nc4C4(CC4)C3=O)c2)cc(C(F)(F)F)c1 [Compound 30, N-(3-(2'-(cyclopropylamino)-7'-oxo-5'H-spiro[cyclopropane-1,8'-pyrido[4,3-d]pyrimidine]-6'(7'H)-yl)-4-methylphenyl)-3-((2-methoxyethyl)(methyl)amino)-5-(trifluoromethyl)benzamide] was tested. Which GI50 did it give?
Its GI50 is 1 to 5 µM.

For Cc1ccc(NC(=O)c2cc(N3CCN(C)CC3)cc(C(F)(F)F)c2)cc1N1Cc2cnc(NC3CC3)nc2C2(CC2)C1=O [Compound 32, N-(3-(2'-(cyclopropylamino)-7'-oxo-5'H-spiro[cyclopropane-1,8'-pyrido[4,3-d]pyrimidine]-6'(7'H)-yl)-4-methylphenyl)-3-(4-methylpiperazin-1-yl)-5-(trifluoromethyl)benzamide], which GI50 is on record?
The GI50 was 1 to 5 µM.

Cc1ccc(NC(=O)c2cc(N3CCN(C)CC3)cc(C(F)(F)F)c2)cc1N1Cc2cnc(N)nc2C2(CC2)C1=O [Compound 33, N-(3-(2'-amino-7'-oxo-5'H-spiro[cyclopropane-1,8'-pyrido[4,3-d]pyrimidine]-6'(7'H)-yl)-4-methylphenyl)-3-(4-methylpiperazin-1-yl)-5-(trifluoromethyl)benzamide] was tested. Which GI50 did it give?
The GI50 was 5 to 10 µM.

Which GI50 does the source give for Cc1ccc(NC(=O)c2cc(N3CCNCC3)cc(C(F)(F)F)c2)cc1N1Cc2cnc(N)nc2C2(CC2)C1=O [Compound 34, N-(3-(2'-amino-7'-oxo-5'H-spiro[cyclopropane-1,8'-pyrido[4,3-d]pyrimidine]-6'(7'H)-yl)-4-methylphenyl)-3-(piperazin-1-yl)-5-(trifluoromethyl)benzamide] here?
Its GI50 is 5 to 10 µM.

Cc1ccc(NC(=O)c2cc(N3CCNCC3)cc(C(F)(F)F)c2)cc1N1Cc2cnc(NC3CC3)nc2C2(CC2)C1=O [Compound 35, N-(3-(2'-(cyclopropylamino)-7'-oxo-5'H-spiro[cyclopropane-1,8'-pyrido[4,3-d]pyrimidine]-6'(7'H)-yl)-4-methylphenyl)-3-(piperazin-1-yl)-5-(trifluoromethyl)benzamide] was tested. Which GI50 did it give?
The GI50 was 5 to 10 µM.

How did the GI50 turn out when Cc1ccc(NC(=O)c2cc(N(C)CCN(C)C)cc(C(F)(F)F)c2)cc1N1Cc2cnc(NC3CC3)nc2C2(CC2)C1=O [Compound 36, N-(3-(2'-(cyclopropylamino)-7'-oxo-5'H-spiro[cyclopropane-1,8'-pyrido[4,3-d]pyrimidine]-6'(7'H)-yl)-4-methylphenyl)-3-((2-(dimethylamino)ethyl)(methyl)amino)-5-(trifluoromethyl)benzamide] was run?
Its GI50 is 5 to 10 µM.

Which GI50 does the source give for Cc1ccc(NC(=O)c2cc(N(C)CCN(C)C)cc(C(F)(F)F)c2)cc1N1Cc2cnc(N)nc2C2(CC2)C1=O [Compound 37, N-(3-(2'-amino-7'-oxo-5'H-spiro[cyclopropane-1,8'-pyrido[4,3-d]pyrimidine]-6'(7'H)-yl)-4-methylphenyl)-3-((2-(dimethylamino)ethyl)(methyl)amino)-5-(trifluoromethyl)benzamide] here?
The GI50 was greater than 10 µM.

Target: T1, ACK1 (Homo sapiens, UniProt Q07912)
T1 construct: purchased Reaction Biology (RBC)
T1 sequence (Q07912 whole entry): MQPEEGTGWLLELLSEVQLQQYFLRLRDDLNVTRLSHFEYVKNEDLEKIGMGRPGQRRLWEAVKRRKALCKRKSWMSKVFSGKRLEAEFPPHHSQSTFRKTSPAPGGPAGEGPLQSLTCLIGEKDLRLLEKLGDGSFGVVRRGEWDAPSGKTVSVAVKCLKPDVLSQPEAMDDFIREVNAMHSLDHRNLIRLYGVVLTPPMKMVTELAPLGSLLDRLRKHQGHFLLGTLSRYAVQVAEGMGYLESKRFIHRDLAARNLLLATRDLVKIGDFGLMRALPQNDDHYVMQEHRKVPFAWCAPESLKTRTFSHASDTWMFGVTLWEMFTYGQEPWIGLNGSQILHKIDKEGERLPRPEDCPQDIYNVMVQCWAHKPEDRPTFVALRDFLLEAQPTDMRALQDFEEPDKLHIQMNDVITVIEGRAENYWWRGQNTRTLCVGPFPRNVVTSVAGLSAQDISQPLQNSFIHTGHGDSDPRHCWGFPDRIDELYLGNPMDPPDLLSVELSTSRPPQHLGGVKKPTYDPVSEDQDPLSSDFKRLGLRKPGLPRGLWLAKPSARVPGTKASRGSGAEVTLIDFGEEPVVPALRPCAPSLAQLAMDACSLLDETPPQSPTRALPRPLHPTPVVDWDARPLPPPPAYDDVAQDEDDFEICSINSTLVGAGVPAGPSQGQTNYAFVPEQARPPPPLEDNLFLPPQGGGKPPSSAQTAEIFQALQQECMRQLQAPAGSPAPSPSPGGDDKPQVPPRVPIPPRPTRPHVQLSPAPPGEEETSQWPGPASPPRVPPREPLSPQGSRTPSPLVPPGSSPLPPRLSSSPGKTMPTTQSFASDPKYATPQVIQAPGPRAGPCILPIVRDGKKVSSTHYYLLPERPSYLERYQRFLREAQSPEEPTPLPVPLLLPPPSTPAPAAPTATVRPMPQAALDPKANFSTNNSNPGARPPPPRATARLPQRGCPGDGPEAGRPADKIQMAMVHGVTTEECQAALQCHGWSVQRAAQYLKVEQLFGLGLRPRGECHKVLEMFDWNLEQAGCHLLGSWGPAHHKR
Test: Enzyme activity inhibition (Reaction Biology)
Format: biochemical
Settings: not given
Description: [* <10 nM: A, <100 nM: B, >100 nM: C]. [Table 7]

Which IC50 does the source give for Cc1ccc(NC(=O)c2cccc(C(F)(F)F)c2)cc1N1Cc2cnc(NO)nc2C2(CC2)C1=O [Compound 70, N-(3-(2'-(hydroxyamino)-7'-oxo-5'H-spiro[cyclopropane-1,8'-pyrido[4,3-d]pyrimidine]-6'(7'H)-yl)-4-methylphenyl)-3-(trifluoromethyl)benzamide] here?
The IC50 was 0.01 to 0.1 µM.
